Experimental findings from ChEMBL document CHEMBL4251578, “Design, synthesis and biological evaluation of novel 2-aminobenzamides containing dithiocarbamate moiety as histone deacetylase inhibitors and potent antitumor agents” (Eur J Med Chem, 2018) are described below.

The subject of assay [1] is SMMC-7721. The experiment in a line: Induction of apoptosis in human SMMC7721 cells assessed as late apoptotic cells at 1 umol/L after 72 hrs by Alexa Fluor 488 Annexin/propidium iodide staining-based flow cytometric analysis (reference value: 0.29%). It is filed as functional. For orientation: Flow cytometry measures light scatter and fluorescence of single cells or particles in a stream.

The test system of assay [2] is SMMC-7721. The experiment in a line: Induction of apoptosis in human SMMC7721 cells assessed as early apoptotic cells at 0.125 umol/L after 72 hrs by Alexa Fluor 488 Annexin/propidium iodide staining-based flow cytometric analysis (reference value: 0.09%). It counts as functional.
Assay [3] deals with A-375. The experiment in a line: Antiproliferative activity against human A375 cells after 72 hrs by CCK-8 assay. It is filed as functional, cell-based. To be noted: for IC50: A-375, 72 h. On the technique in general: Formazan colour is commonly taken as a measure of viable cells.
The test system of assay [4] is SMMC-7721. The experiment in a line: Cell cycle arrest in human SMMC7721 cells assessed as accumulation of cells at S phase at 4 umol/L after 72 hrs by propidium iodide staining-based flow cytometric analysis (reference value: 5.21%). It is filed as functional.
In assay [5] the test system is HeLa. The experiment in a line: Antiproliferative activity against human HeLa cells after 72 hrs by CCK-8 assay. It is filed as functional, cell-based.
The subject of assay [6] is SMMC-7721. The experiment in a line: Induction of apoptosis in human SMMC7721 cells assessed as early apoptotic cells at 4 umol/L after 72 hrs by Alexa Fluor 488 Annexin/propidium iodide staining-based flow cytometric analysis (reference value: 0.09%). It counts as functional.
In assay [7] the test system is SMMC-7721. The experiment in a line: Cell cycle arrest in human SMMC7721 cells assessed as accumulation of cells at S phase at 1 umol/L after 72 hrs by propidium iodide staining-based flow cytometric analysis (reference value: 5.21%). It is filed as functional.
For assay [8], the system named is MGC-803. The experiment in a line: Antiproliferative activity against human MGC803 cells at 2 uM after 72 hrs by CCK-8 assay relative to control. It is filed as functional. As to conditions: MGC-803, 72 h.
Assay [9] deals with HeLa. Put plainly: Antiproliferative activity against human HeLa cells at 8 uM after 72 hrs by CCK-8 assay relative to control. It counts as functional.
For assay [10], the system named is SMMC-7721. The experiment in a line: Cell cycle arrest in human SMMC7721 cells assessed as accumulation of cells at G2/M phase at 4 umol/L after 72 hrs by propidium iodide staining-based flow cytometric analysis (reference value: 14.14%). It counts as functional.
The target in assay [11] is Histone deacetylase 2 (Homo sapiens, UniProt Q92769). Put plainly: Inhibition of human recombinant HDAC2 using Fluor de Lys-Green as substrate preincubated for 5 mins followed by substrate addition and measured after 1 hr by fluorescence assay.
Assay [12] deals with SMMC-7721. The experiment in a line: Induction of apoptosis in human SMMC7721 cells assessed as viable cells at 0.125 umol/L after 72 hrs by Alexa Fluor 488 Annexin/propidium iodide staining-based flow cytometric analysis (reference value: 97.14%). It counts as functional. As to conditions: SMMC-7721, 72 h, read-out: Activity.
For assay [13], the system named is SMMC-7721. The experiment in a line: Induction of apoptosis in human SMMC7721 cells after 72 hrs by Alexa Fluor 488 Annexin/propidium iodide staining-based flow cytometric analysis. It is filed as functional, cell-based.
The subject of assay [14] is SMMC-7721. The experiment in a line: Cell cycle arrest in human SMMC7721 cells assessed as accumulation of cells at G2/M phase at 0.125 umol/L after 72 hrs by propidium iodide staining-based flow cytometric analysis (reference value: 14.14%). It is filed as functional.
The subject of assay [15] is SMMC-7721. Put plainly: Cell cycle arrest in human SMMC7721 cells assessed as accumulation of cells at G2/M phase at 1 umol/L after 72 hrs by propidium iodide staining-based flow cytometric analysis (reference value: 14.14%). It counts as functional.
The target of assay [16] is Histone deacetylase. The experiment in a line: Inhibition of HDAC in human HeLa cell extract using Fluor de Lys-Green as substrate preincubated for 5 mins followed by substrate addition and measured after 1 hr by fluorescence assay. It is filed as protein assay.
Assay [17] concerns SMMC-7721. The experiment in a line: Cell cycle arrest in human SMMC7721 cells assessed as accumulation of cells at […] phase after 72 hrs by propidium iodide staining-based flow cytometric analysis. It counts as functional.

By IC50 is commonly meant the point on the concentration scale where inhibition reaches its midpoint. Broadly, the inhibition is the change of the read-out against control, counted positive when it falls. Lower therefore signals a weak effect.

Chain of Histone deacetylase 2 (Q92769 whole entry): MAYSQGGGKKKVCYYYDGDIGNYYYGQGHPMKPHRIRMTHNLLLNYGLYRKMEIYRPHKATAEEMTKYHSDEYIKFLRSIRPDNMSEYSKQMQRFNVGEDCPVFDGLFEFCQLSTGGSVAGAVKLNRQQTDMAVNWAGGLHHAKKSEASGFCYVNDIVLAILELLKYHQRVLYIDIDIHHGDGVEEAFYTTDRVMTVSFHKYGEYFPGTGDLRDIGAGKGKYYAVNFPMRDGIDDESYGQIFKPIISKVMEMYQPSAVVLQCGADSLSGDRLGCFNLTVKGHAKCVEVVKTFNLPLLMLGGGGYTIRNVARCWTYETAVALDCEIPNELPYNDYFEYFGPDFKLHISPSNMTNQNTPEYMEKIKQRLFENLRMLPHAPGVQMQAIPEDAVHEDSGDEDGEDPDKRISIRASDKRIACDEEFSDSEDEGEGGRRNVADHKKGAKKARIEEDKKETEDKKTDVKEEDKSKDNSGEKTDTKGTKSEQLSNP

Turning to `Nc1ccccc1NC(=O)c1ccc(CSC(=S)N2CCN(c3ccncc3)CC2)cc1`, the Activity in [1] was 11.06%; in [2] it was 3.66%; in [3], “Dose-dependent effect”; in assay [4], 2.76%; in assay [5], “Dose-dependent effect”; in [6], 19.79%. Moreover, the Activity in assay [7] was 7.04%; in [10], 12.05%; in assay [13], “Dose-dependent effect”; in assay [14], 12.01%; in assay [15], 13.68%. Also, the IC50 in assay [3] is 1270 nM; in assay [5], 790 nM; in assay [11], 470 nM; in [16], 720 nM. In [8], this molecule came in with an inhibition at 2 µM of 64.8%. The molecule further returned an inhibition at 8 µM in assay [9] of 77.4%. In [12], the viability at 0.125 µM stood at 72.5%.
As to `CCN(Cc1ccncc1)C(=S)SCc1ccc(C(=O)Nc2ccccc2N)cc1`, the Activity in assay [1] is 14.06%; in assay [2] it was 2.75%; in [4], 9.19%; in [6], 23.81%; in assay [7] it was 7.45%; in assay [17] it was “Dose-dependent effect”. Besides, the Activity in assay [10] was 48.94%; in assay [13], “Dose-dependent effect”; in assay [14], 11.92%; in [15] it was 21.11%. The IC50 in assay [3] is 1940 nM; in assay [5] it was 1040 nM; in [11] it was 900 nM; in [16] it was 1800 nM. The same molecule gave an inhibition at 2 µM in assay [8] of 71.6%. The molecule also returned an inhibition at 8 µM in assay [9] of 77.7%. Further, in [12], the viability at 0.125 µM amounted to 73.1%.
Turning to `Nc1ccccc1NC(=O)c1ccc(CSC(=S)N2CCc3ccccc3C2)cc1`, the Activity is 12.44% in assay [1]; 14.71% in assay [2]; 7.63% in [4]; 25.36% in assay [6]; 9.25% in assay [7]; “Dose-dependent effect” in assay [17]. Besides, the Activity in assay [10] was 28.31%; in assay [13], “Dose-dependent effect”; in assay [14] it was 15.89%; in [15] it was 23.16%. For the same molecule, the results for the IC50 in assay [3], in assay [5] and in [11] were 1970 nM, 1460 nM and 3230 nM, respectively. In [8], this molecule showed an inhibition at 2 µM of 80.9%. The molecule also registered an inhibition at 8 µM in assay [9] of 76.3%. Further, the viability at 0.125 µM in [12] turned out to be 71.2%.
